According to patent publication US7915402B2, “Antioxidant inflammation modulators: oleanolic acid derivatives with saturation in the C-ring” (Reata Pharmaceuticals, Inc., priority 2008, dated 2011):
Like-named read-outs stand apart in the source and are kept apart here.

Columns and labels:
[1] = test system: HO-1; experiment: Nrf2 target gene induction, HO-1 mRNA (qPCR); format: cell-based, human; settings: MDA-MB-435 cells
Method: FIGS. 17-20. Induction of HO-1. MDA-MB-435 human melanoma cells were treated with vehicle (DMSO) or the indicated compounds and concentrations for 16 hours. HO-1 mRNA levels were quantified using qPCR and were normalized relative to a DMSO-treated sample run in parallel. Values are averages of duplicate wells.
(§1) FIG. 21. Induction of HO-1, TrxR1 and γ-GCS. MDA-MB-435 human melanoma cells were treated with vehicle (DMSO) or the indicated compounds and concentrations for 16 hours. HO-1, thioredoxin reductase-1 (TrxR1), and γ-glutamylcysteine synthetase (γ-GCS) mRNA levels were quantified using qPCR and were normalized relative to a DMSO-treated sample run in parallel. Values are averages of duplicate wells.
(§2) Nrf2 target gene induction. MDA-MB-435 human melanoma cells were treated with vehicle (DMSO) or the indicated compounds and concentrations for 16 hours. HO-1, thioredoxin reductase-1 (TrxR1), γ-glutamylcysteine synthetase (γ-GCS), and ferritin heavy chain mRNA levels were quantified using qPCR and were normalized relative to a DMSO-treated sample run in parallel. Values are averages of duplicate wells. Primer sequences are as follows.

[2] = test system: thioredoxin reductase-1 (TrxR1); experiment: Nrf2 target gene induction, TrxR1 mRNA (qPCR); format: cell-based, human; settings: MDA-MB-435 cells
Method: as §1
FIG. 22. Induction of TrxR1. MDA-MB-435 human melanoma cells were treated with vehicle (DMSO) or the indicated compounds and concentrations for 16 hours. Thioredoxin reductase-1 (TrxR1) mRNA levels were quantified using qPCR and were normalized relative to a DMSO-treated sample run in parallel. Values are averages of duplicate wells. Compounds 401, 402-19 and 402-53 are comparison compounds (see Example 1).
as §2

[3] = test system: iNOS; experiment: iNOS suppression, Western blot; format: cell-based, mouse; settings: RAW264.7 (20 ng/ml IFNγ)
[4] = test system: Ferritin heavy chain; experiment: Induction of ferritin heavy chain mRNA (qPCR); format: cell-based, human; settings: MDA-MB-435 cells, 16 hours
Method: FIG. 24. Induction of Ferritin Heavy Chain. MDA-MB-435 human melanoma cells were treated with vehicle (DMSO) or the indicated compounds and concentrations for 16 hours. Ferritin heavy chain mRNA levels were quantified using qPCR and were normalized relative to a DMSO-treated sample run in parallel. Values are averages of duplicate wells.
as §2

[5] = test system: Sprague-Dawley rats; settings: Sprague-Dawley rats, 1,500 mg/m^2/day for 14 days
[6] = test system: γ-glutamylcysteine synthetase (γ-GCS); experiment: Nrf2 target gene induction, γ-GCS mRNA (qPCR); format: cell-based, human; settings: MDA-MB-435 cells
Method: as §1
FIG. 23. Induction of γ-GCS. MDA-MB-435 human melanoma cells were treated with vehicle (DMSO) or the indicated compounds and concentrations for 16 hours. γ-glutamylcysteine synthetase (γ-GCS) mRNA levels were quantified using qPCR and were normalized relative to a DMSO-treated sample run in parallel. Values are averages of duplicate wells.
as §2

[7] = test system: NQO1; experiment: Nrf2 target gene induction, NQO1; format: cell-based, human; settings: MDA-MB-435 cells, 250 nM; fold induction above DMSO control
[8] = test system: RAW264.7 macrophages; experiment: Cell viability, WST-1 reagent; format: cell-based, mouse; settings: Mus musculus, RAW264.7 (20 ng/ml IFNγ)
Method: (§3) FIGS. 1-8 and 32-34. Inhibition of NO Production. RAW264.7 macrophages were pre-treated with DMSO or drugs at various concentrations (nM) for 2 hours, then treated with 20 ng/ml IFNγ for 24 hours. NO concentration in media was determined using a Griess reagent system; cell viability was determined using WST-1 reagent.
(§4) Nitric Oxide production and cell viability. RAW264.7 macrophages were pre-treated with DMSO or drugs for 2 hours, then treated with recombinant mouse IFNγ (Sigma) for 24 hours. NO concentration in media was determined using the Griess reagent system (Promega). Cell viability was determined using WST-1 reagent (Roche).

[9] = test system: IFNγ-induced NO production in RAW264.7 macrophages; experiment: Suppression of IFNγ-induced NO production (Griess reagent); format: cell-based, mouse; settings: Mus musculus; RAW264.7, 20 ng/ml IFNγ 24 h, 2 h pre-treatment
Method: as §3, §4

[10] = test system: mice; settings: sesame oil, N=4
[11] = 250 nM, fold induction above DMSO control
[12] = 400 nM, percent of induction observed for 402

`COC(=O)[C@]12CCC(C)(C)C[C@H]1[C@H]1C(=O)CC3[C@@]4(C)C=C(C#N)C(=O)C(C)(C)[C@@H]4CC[C@@]3(C)[C@]1(C)CC2` (stereo partly drawn) [Compound 63101, (4aS,6aR,6bR,8aR,12aR,14aR,14bS)-methyl 11-cyano-2,2,6a,6b,9,9,12a-heptamethyl-10,14-dioxo-1,2,3,4,4a,5,6,6a,6b,7,8,8a,9,10,12a,12b,13,14,14a,14b-icosahydropicene-4a-carboxylate] showed an HO-1 induction [1, 11] of 3 fold, an HO-1 induction [1, 12] of 4% and a TrxR1 induction [2, 12] of 47%. The “TrxR1 mRNA induction: concentration needed compared with unsaturated counterpart (402, 404)” value ([2]; 16 hours) was “higher concentrations”, the “iNOS suppr. WB” value [3] was >90% and the “Ferritin heavy chain mRNA induction: concentration needed compared with unsaturated counterpart (402, 404)” value [4] was “higher concentrations”. For the same molecule, the “highest dose without significant toxicity relative to the MTD of RTA 402 in this species” value [5] was 50 fold, the γ-GCS induction [6, 11] was 5 fold and the γ-GCS induction [6, 12] was 53%. For the same molecule, the “γ-GCS mRNA induction: concentration needed compared with unsaturated counterpart (402, 404)” value ([6]; 16 hours) was “higher concentrations”, the NQO1 induction [7] was 2 fold and the IC50 [8] was 200 nM. For the same molecule, the IC50 [9] was ~12 nM, the “Number of Deaths” value ([10]; oral gavage QDx14, 10 mg/kg) was 0 and the “Number of Deaths” value ([10]; oral gavage QDx14, 50 mg/kg) was 0. For the same molecule, the “Number of Deaths” value ([10]; oral gavage QDx14, 100 mg/kg) was 0 and the “Number of Deaths” value ([10]; oral gavage QDx14, 250 mg/kg) was 0.
